This is an account of results in US9381254B2, “Methods for preparing polymeric reagents” (Nektar Therapeutics, priority 2005, dated 2016).

The subject of one data set is diabetic db/db mice. The data set can be described thus: In-vivo study in mice of blood-glucose lowering effects of GLP-1 polymer conjugates. On the set-up: species or system mouse. The note with it: for PD effect when compared to the 20 kiloDalton PEG conjugate: single subcutaneous dose 420 μg; for blood glucose-lowering effect: single subcutaneous dose (GLP-1 60, 120 μg; conjugates 420 μg), FIG. 14. The procedure:
Male diabetic mice (BKS.Cg-+Lepr db/+Lepr db/01aHsd) were purchased from Harlan Laboratories, Ltd. (Jerusalem, Israel). The 8-9 week old animals (30-40 gm) were placed in mouse cages (two animals per cage), and allowed at least 48 hours of acclimatization before the start of the study.
Each compound was accurately weighed into a glass vial and dissolved in normal saline in order to prepare a concentration that would accommodate for the dose (based on GLP-1 equivalents) and the injection volume of 100 μL.
The study was divided into two phases: a feasibility phase and an evaluation phase.
In the feasibility phase, the feasibility of using diabetic db/db mice to test the effectiveness of GLP-1 was first evaluated. In carrying out the feasibility phase, several groups of mice were used wherein four mice were used in each group. Data on the baseline glucose levels were gathered for each mouse for 2-3 days prior to drug dosing. This was performed to identify any outliers in the group of animals. On the day of treatment (Day 0) each animal was weighed. A time 0 day blood sample (5 to 10 μL) was collected from the tail vein. The glucose level (mg/dL) was measured using a glucose analyzer. Each animal was then dosed subcutaneously (SC) below the skin on the back. […] The animals were then allowed to return into their cages. Blood samples of 5 to 10 μL (<0.5% of 2 mL blood volume for a 35 g mouse) were removed through a needle prick/capillary tube at the following time points: −3, −2, −1, 0, 0.04, 0.16, 0.33, 1.0, 1.16 days. Each collected blood sample was tested for its glucose level. At the end of the study, the animals were humanely euthanized by carbon-dioxide asphyxiation.
In the evaluation phase, the results from the feasibility phase were used to select the appropriate doses required to attain a sustained delivery of GLP-1 for a 3-5 day effect. In carrying out the evaluation phase, eight mice were used in each group. Data on the baseline glucose levels were gathered for each mouse three days prior to drug dosing. On the day of treatment (Day 0) each animal was weighed. A time 0 day blood sample (5 to 10 μL) was collected from the tail vein. The glucose level (mg/dL) was measured using a glucose analyzer. Each animal was then dosed subcutaneously (SC) below the skin on the back. […] The animals were then allowed to return into their cages. Blood samples of 5 to 10 μL (<0.5% of 2 mL blood volume for a 35 g mouse) were removed through a needle prick/capillary tube at the following time points: −3, −2, −1, 0, 0.04, 0.16, 0.33, 0.5, 1, 2, 3, 6 days. Each collected blood sample was tested for its glucose level. Food was withdrawn from the animals for the first four hours after dosing. At the end of the study, the animals were humanely euthanized by carbon-dioxide asphyxiation.

The nature of data set [1]: Cleavable nature of GLP-1 conjugate in aqueous media (50 mM Tris, pH 10, overnight at 50° C.), SDS-PAGE / reverse phase HPLC. It counts as physicochemical. The note with it: 50 mM Tris solution.
Method: The column was a 100 mm×2.1 mm ID Betasil C18 column with 5 μm particles, available from Thermo Electron Corp. Reverse phase HPLC used a mobile phase of 0.1% TFA in deionized water (solution C) and 0.1% TFA in acetonitrile (solution D) conducted at 37° C. The gradient used for reverse phase HPLC was as follows: for time 0.00 to 20.00 minutes, 35% of the mobile phase contained solution D; for time 20.00 to 21.00 minutes, 55% of the mobile phase contained solution D; for time 21.00 to 23.00 minutes, 80% of the mobile phase contained solution D; for time 23.00 to 24.00 minutes, 80% of the mobile phase contained solution D; for time 24.00 to 25.00 minutes, 35% of the mobile phase contained solution D; for time 25.00 and above, 35% of mobile phase contained solution D.

Ends that are not written are not given here.

For “G2PEG2Fmoc40K-Lys-GLP-1: G2PEG2Fmoc40k-NHS covalently and releasably attached to a lysine position of GLP-1 (HAEGTFTSDVSSYLEGQAAKEFIAWLVKGR; ends and bridges not checked; also: releasable G2PEG2Fmoc40K PEG on a lysine; UniProt P01275 98-127, looked up)”, in the data set with diabetic db/db mice, the “PD effect when compared to the 20 kiloDalton PEG conjugate” value is “small but extended PD effect” and the blood glucose-lowering effect entry is given as “confirmed”.
As for “G2PEG2Fmoc20K-Lys-GLP-1: G2PEG2Fmoc20k-NHS covalently and releasably attached to a lysine position of GLP-1 (HAEGTFTSDVSSYLEGQAAKEFIAWLVKGR; ends and bridges not checked; also: releasable G2PEG2Fmoc20K PEG on a lysine; UniProt P01275 98-127, looked up)”, in the data set with diabetic db/db mice, the blood glucose-lowering effect result was “confirmed”.
Take “Glucagon-like Peptide I (7-36, “GLP-1”) [reference compound]”: the blood glucose-lowering effect entry in the data set with diabetic db/db mice is listed as “confirmed”. Further, the “clearance from the mouse (from pharmacodynamic measurements)” value with diabetic db/db mice (subcutaneous) was “cleared rapidly”.
For G2PEG2Fmoc40k-N^ter-GLP-1, in data set [1], the “release of GLP-1 from the conjugate” value is listed as “complete release”. Moreover, the “PD effect when compared to the 20 kiloDalton PEG conjugate” value in the data set on diabetic db/db mice was “small but extended PD effect”.
